According to patent publication US6518289B1 (Pfizer, Inc., priority 1997, dated 2003):
Structures can show the parent of a compound that is named as a salt.

Legend:
DBA2 audiogenic seizure = DBA2 audiogenic seizure model
[1] = test system: carrageenan induced hyperalgesia; assay: carrageenan induced hyperalgesia assay (Pain Model)
[2] = 30 mg/kg orally in the rat, at 1 hour
[3] = 30 mg/kg orally in the rat, at 2 hours

| SMILES | 1 Hour (second column pair, group head not given) (DBA2 audiogenic seizure) | 2 Hours (second column pair, group head not given) (DBA2 audiogenic seizure) | Pain Model % MPE 1 Hour [1] [% MPE] | Pain Model % MPE 2 Hours [1] [% MPE] | further results |
| --- | --- | --- | --- | --- | --- |
| Cl.NCC1(Cc2nnn[nH]2)CCCCC1 [C-[1-(1H-Tetrazol-5-ylmethyl)-cyclohexyl)-methylamine hydrochloride] | 60 | 100 | – | – | protection (DBA2 audiogenic seizure; 10 mg/kg oral dosing, 1 hour postdose): 60%; protection (DBA2 audiogenic seizure; 10 mg/kg oral dosing, 2 hours postdose): 100%; protection (DBA2 audiogenic seizure; 10 mg/kg oral dosing, 4 hours postdose): 100%; protection (DBA2 audiogenic seizure; 10 mg/kg oral dosing, 6 hours postdose): 80% |
| CS(=O)(=O)NCCC1(CN)CCCCC1 (as salt: hydrochloride) [N-[2-1-Aminomethyl-cyclohexyl)-ethyl]-methanesulfonamide hydrochloride] | – | – | – | – | melting point: 196 to 199 °C |
| CS(=O)(=O)NCCC1(CN)CCCCC1 [N-[2-1-Aminomethyl-cyclohexyl)-ethyl]-methanesulfonamide hydrochloride] | – | 0 | 0.3 | −0.9 | – |
| CC(C)(C)C(=O)NCCC1(CN)CCCCC1 [N-[2-(1-Aminomethyl-cyclohexyl)-ethyl]-t-butylamide] | – | 0 | 1.6 | −4.8 | – |
| Cl.NCC1(Cc2noc(=S)[nH]2)CCCCC1 [3-(1-Aminomethyl-cyclohexylmethyl)-4H-[1,2,4]oxadiazole-5-thione; hydrochloride] | 0 | 0 | – | – | melting point: 210 to 212 °C |
| NCC1(CC(=O)O)CCCCC1 [Gabapentin, 1-(aminomethyl)-cyclohexaneacetic acid, reference compound] | 100 | 100 | 49.9 | 19.9 | response in the DBA2 audiogenic seizure model (DBA2 audiogenic seizure; 10 mg/kg orally, result in words): no significant response; protection (DBA2 audiogenic seizure; 30 mg/kg, 2 hours postdose): 100%; increase of paw withdrawal latency [1, 2]: 49.9%; increase of paw withdrawal latency [1, 3]: 19.9% |
| Cl.NCC1(Cc2noc(=O)[nH]2)CCCCC1 | 20 | 40 | 80.6 | 76.1 | duration of antihyperalgesic effect compared with gabapentin ([1]; 30 mg/kg orally in the rat): antihyperalgesic effect of longer duration than gabapentin; increase of paw withdrawal latency [1, 2]: 80.6%; increase of paw withdrawal latency [1, 3]: 76%; activity in the carrageenan induced hyperalgesia assay ([1]; result in words): active |
